# Test results taken from ChEMBL document CHEMBL4342484, “Structure-Activity Relationship for the Oxadiazole Class of Antibacterials” (ACS Med Chem Lett, 2020).
# How the values were obtained:
# Staphylococcus aureus [1] = test: Antibacterial activity against Staphylococcus aureus ATCC 29213 by broth microdilution method; format: functional
# [2] = Hemolytic activity in human RBC relative to control; format: ADME, cell-based, Erythrocyte; details: red blood cells (erythrocytes), read-out: Activity
# HepG2 = test: Cytotoxicity against human HepG2 cells assessed as reduction in cell viability by XTT assay; format: cell-based
# [3] = Plasma protein binding in human at […] incubated for 2 hrs by UPLC analysis; format: ADME, cell-free; details: read-out: PPB (converted)
# Enterococcus faecalis [4] = test: Antibacterial activity against vancomycin-susceptible Enterococcus faecalis 201 clinical isolate by broth microdilution method; format: functional
# Staphylococcus aureus [5] = test: Antibacterial activity against vancomycin-resistant Staphylococcus aureus VRS1 clinical isolate by broth microdilution method; format: functional
# [6] = tested on: Staphylococcus haemolyticus; test: Antibacterial activity against Staphylococcus haemolyticus ATCC 29970 by broth microdilution method; format: functional
# Staphylococcus aureus [7] = test: Antibacterial activity against vancomycin-resistant Staphylococcus aureus VRS2 clinical isolate by broth microdilution method; format: functional
# Enterococcus faecalis [8] = test: Antibacterial activity against Enterococcus faecalis ATCC 29212 by broth microdilution method; format: functional
SMILES,MIC (Staphylococcus aureus [1]),other results
Nc1ccccc1Oc1ccc(-c2noc(-c3ccc(O)cc3)n2)cc1,≥ 128 mg/L,–
Oc1ccc(-c2nc(-c3ccc4c(c3)Oc3ccccc3O4)no2)cc1,≥ 128 mg/L,–
Oc1ccc(-c2nc(-c3ccc(OC4CCOC4)cc3)no2)cc1 (configuration not stated),≥ 128 mg/L,–
Oc1ccc(-c2noc(-c3ccc(O)cc3)n2)cc1,≥ 128 mg/L,–
CC(=O)NCCOc1ccc(-c2noc(-c3ccc(O)cc3)n2)cc1,> 128 mg/L,–
CN(C)C(=O)CCOc1ccc(-c2noc(-c3ccc(O)cc3)n2)cc1,≥ 128 mg/L,–
CC(C)(C)Oc1ccc(-c2noc(-c3ccc(O)cc3)n2)cc1,≥ 128 mg/L,–
Oc1ccc(-c2nc(-c3ccc(OC4CN5CCC4CC5)cc3)no2)cc1 (configuration not stated),64 mg/L,–
Oc1ccc(-c2nc(-c3ccc(Oc4ccc(CBr)cc4)cc3)no2)cc1,≥ 128 mg/L,–
O=C(O)c1ccccc1Oc1ccc(-c2noc(-c3ccc(O)cc3)n2)cc1,> 128 mg/L,–
CC(C)(C)OC(=O)NC1CCC(Oc2ccc(-c3noc(-c4ccc(O)cc4)n3)cc2)CC1 (configuration not stated),≥ 128 mg/L,–
CN1[C@@H]2CC[C@@H]1CC(Oc1ccc(-c3noc(-c4ccc(O)cc4)n3)cc1)C2 (some centres not stated),32 mg/L,–
Oc1ccc(-c2nc(-c3ccc4oc5ccc(C(F)(F)F)cc5c4c3)no2)cc1,≥ 128 mg/L,–
CC(C)S(=O)(=O)Oc1ccc(-c2noc(-c3ccc(O)cc3)n2)cc1,≥ 128 mg/L,–
Oc1ccc(-c2nc(-c3ccc4oc5ccc(F)cc5c4c3)no2)cc1,≥ 128 mg/L,–
CN[C@H](CC(C)C)C(=O)N[C@H]1C(=O)N[C@@H](CC(N)=O)C(=O)N[C@H]2C(=O)N[C@H]3C(=O)N[C@H](C(=O)N[C@H](C(=O)O)c4cc(O)cc(O)c4-c4cc3ccc4O)[C@H](O)c3ccc(c(Cl)c3)Oc3cc2cc(c3O[C@@H]2O[C@H](CO)[C@@H](O)[C@H](O)[C@H]2O[C@H]2C[C@](C)(N)[C@H](O)[C@H](C)O2)Oc2ccc(cc2Cl)[C@H]1O [VANCOMYCIN],–,MIC (Enterococcus faecalis [4]): 1 mg/L; MIC (Staphylococcus aureus [5]): 64 mg/L; MIC [6]: 4 mg/L; MIC (Staphylococcus aureus [7]): 32 mg/L; MIC (Enterococcus faecalis [8]): 2 mg/L
CC(=O)c1ccc(Oc2ccc(-c3noc(-c4n[nH]cc4Cl)n3)cc2)cc1,≥ 128 mg/L,–
Clc1c[nH]nc1-c1nc(-c2ccc(OC3CCNCC3)cc2)no1,≥ 128 mg/L,–
FC(F)(F)Oc1ccc(-c2noc(-c3ccc4[nH]ccc4c3)n2)cc1,≥ 128 mg/L,–
N#Cc1ccc(Oc2ccc(-c3noc(-c4n[nH]cc4Cl)n3)cc2)cc1,128 mg/L,–
CS(=O)(=O)c1ccc(Oc2ccc(-c3noc(-c4n[nH]cc4Cl)n3)cc2)cc1,128 mg/L,–
CC(C)(C)OC(=O)N1CCC(Oc2ccc(-c3noc(-c4n[nH]cc4Cl)n3)cc2)C1 (configuration not stated),≥ 128 mg/L,–
CC(C)(C)OC(=O)NCCCOc1ccc(-c2noc(-c3ccc(O)cc3)n2)cc1,≥ 128 mg/L,–
Oc1ccc(-c2nc(-c3ccc4oc5ccccc5c4c3)no2)cc1,≥ 128 mg/L,–
OCc1ccccc1Oc1ccc(-c2noc(-c3ccc(O)cc3)n2)cc1,≥ 128 mg/L,–

# The remaining compounds from weak to strong by MIC (Staphylococcus aureus [1]), led by results:
MIC (Staphylococcus aureus [1]),SMILES,other results
64 mg/L,Oc1ccc(-c2nc(-c3ccc(OC4CCCNC4)cc3)no2)cc1 (configuration not stated),–
64 mg/L,O=C(O)c1ccc(Oc2ccc(-c3noc(-c4ccc(O)cc4)n3)cc2)cc1,–
64 mg/L,Oc1ccc(-c2nc(-c3ccc(OC4CNC4)cc3)no2)cc1,–
64 mg/L,O=C(O)c1cccc(Oc2ccc(-c3noc(-c4ccc(O)cc4)n3)cc2)c1,–
32 mg/L,COc1ccc(-c2noc(-c3ccc(O)cc3)n2)cc1,–
4 mg/L,O=[N+]([O-])c1ccccc1Oc1ccc(-c2noc(-c3ccc(O)cc3)n2)cc1,–
4 mg/L,Oc1ccc(-c2nc(-c3ccc(Oc4cccc(CBr)c4)cc3)no2)cc1,–
4 mg/L,Oc1ccc(-c2nc(-c3ccc(Oc4cccc(I)c4)cc3)no2)cc1,–
4 mg/L,O=C(c1cccc(Oc2ccc(-c3noc(-c4ccc(O)cc4)n3)cc2)c1)C(F)(F)F,–
2 mg/L,Oc1ccc(-c2nc(-c3ccc(Oc4ccc(OC(F)(F)F)cc4)cc3)no2)cc1,hemolysis [2]: 2.1%; IC50 (HepG2): 16.9 mg/L; fraction unbound at 2 h [3]: 0.002
2 mg/L,[N-]=[N+]=Nc1cccc(Oc2ccc(-c3noc(-c4ccc(O)cc4)n3)cc2)c1,–
1 mg/L,Clc1c[nH]nc1-c1nc(-c2ccc(Oc3ccc(I)cc3)cc2)no1,hemolysis [2]: 3.1%; IC50 (HepG2): 30.7 mg/L; fraction unbound at 2 h [3]: 0.095
